Reference: patent US8168779B2, “Anhydrous crystalline β-maltose, its preparation and uses” (priority 2006, dated 2012)

What was measured:
Type in all cases: physicochemical
[1] = Specific surface area by nitrogen adsorption isotherms (BET); settings: BET method, listed as anhydrous crystalline β-maltose converted by the ethanol treatment
Procedure: About 3 g of the anhydrous crystalline β-maltose, obtained in Example 1, was dried in the apparatus under a reduced pressure at about 40° C. for about 15 hours as a pretreatment, and then used for the measurement of specific surface area by the nitrogen adsorption isotherms. The result was analyzed by conventional BET (Brunnauer, Emmet, and Teller) method.

[2] = Powderizing test by admixing dehydrated ethanol
Procedure: The usefulness of the crystal was judged by the amount of deionized water added to the limit of keeping the powder form. The form of the powder was evaluated by the following four phases: (1) powder; (2) lump (it keeps a powder form while it comprises lumps); (3) cake; and (4) paste. As a control, the anhydrous crystalline α-maltose used in Example 2 was treated by the same procedure. The test was carried out in a room where the temperature was kept at 25° C. The results of the test and the form of each sample after admixing with 1.25 ml of deionized water are shown in Table 7 and FIG. 15, respectively. […] The results of the test and the form of each sample after admixing with 6 ml of dehydrated ethanol are shown in Table 8 and FIG. 16, respectively.

[3] = Hygroscopicity test (moisture content under controlled relative humidity); settings: 27° C.
Procedure: Moisture contents of the samples at respective periods were measured based on the change of weight from the start of the test. The moisture contents of the samples at the start of the test were measured by Karl Fischer's method.

[4] = Powderizing test by admixing deionized water; settings: 25° C.
Procedure: The usefulness of the crystal was judged by the amount of deionized water added to the limit of keeping the powder form. The form of the powder was evaluated by the following four phases: (1) powder; (2) lump (it keeps a powder form while it comprises lumps); (3) cake; and (4) paste. As a control, the anhydrous crystalline α-maltose used in Example 2 was treated by the same procedure. The test was carried out in a room where the temperature was kept at 25° C. The results of the test and the form of each sample after admixing with 1.25 ml of deionized water are shown in Table 7 and FIG. 15, respectively.

SMILES: OC[C@H]1O[C@H](O[C@H]2[C@H](O)[C@@H](O)[C@H](O)O[C@@H]2CO)[C@H](O)[C@@H](O)[C@@H]1O [anhydrous crystalline β-maltose]
- Specific surface area [1]: 3.39 m^2/g
- Form of the powder after admixing dehydrated ethanol ([2]; 10 g crystal + 3.0 ml ethanol (24.3 v/w %)): Powder form
- Form of the powder after admixing dehydrated ethanol ([2]; 10 g crystal + 3.5 ml ethanol (27.5 v/w %)): Powder form
- Form of the powder after admixing dehydrated ethanol ([2]; 10 g crystal + 4.0 ml ethanol (30.5 v/w %)): Powder form
- Form of the powder after admixing dehydrated ethanol ([2]; 10 g crystal + 4.5 ml ethanol (33.3 v/w %)): Powder form
- Form of the powder after admixing dehydrated ethanol ([2]; 10 g crystal + 5.0 ml ethanol (36.0 v/w %)): Powder form
- Form of the powder after admixing dehydrated ethanol ([2]; 10 g crystal + 5.5 ml ethanol (38.5 v/w %)): Powder form
- Form of the powder after admixing dehydrated ethanol ([2]; 10 g crystal + 6.0 ml ethanol (40.9 v/w %)): Powder form
- Form of the powder after admixing dehydrated ethanol ([2]; 10 g crystal + 7.0 ml ethanol (45.3 v/w %)): Powder form
- Form of the powder after admixing dehydrated ethanol ([2]; 10 g crystal + 8.0 ml ethanol (49.3 v/w %)): Powder form
- Form of the powder after admixing dehydrated ethanol ([2]; 10 g crystal + 9.0 ml ethanol (52.9 v/w %)): Lump form
- Form of the powder after admixing dehydrated ethanol ([2]; 10 g crystal + 10.0 ml ethanol (56.2 v/w %)): Lump form
- Form of the powder after admixing dehydrated ethanol ([2]; 10 g crystal + 11.0 ml ethanol (59.2 v/w %)): Cake form
- Moisture content of samples ([3]; RH 47% (lithium nitrate), 0 hour (start, Karl Fischer), listed as AC* β-Mal (Present invention)): 0.32 %, w/w
- Moisture content of samples ([3]; RH 47% (lithium nitrate), 2 hours, listed as AC* β-Mal (Present invention)): 0.30 %, w/w
- Moisture content of samples ([3]; RH 47% (lithium nitrate), 4 hours, listed as AC* β-Mal (Present invention)): 0.28 %, w/w
- Moisture content of samples ([3]; RH 47% (lithium nitrate), 24 hours, listed as AC* β-Mal (Present invention)): 0.27 %, w/w
- Moisture content of samples ([3]; RH 47% (lithium nitrate), 96 hours, listed as AC* β-Mal (Present invention)): 0.34 %, w/w
- Moisture content of samples ([3]; RH 47% (lithium nitrate), 192 hours, listed as AC* β-Mal (Present invention)): 0.28 %, w/w
- Moisture content of samples ([3]; RH 58% (sodium bromide), 0 hour (start, Karl Fischer), listed as AC β-Mal (Present invention)): 0.32 %, w/w
- Moisture content of samples ([3]; RH 58% (sodium bromide), 2 hours, listed as AC β-Mal (Present invention)): 0.32 %, w/w
- Moisture content of samples ([3]; RH 58% (sodium bromide), 4 hours, listed as AC β-Mal (Present invention)): 0.33 %, w/w
- Moisture content of samples ([3]; RH 58% (sodium bromide), 6 hours, listed as AC β-Mal (Present invention)): 0.36 %, w/w
- Moisture content of samples ([3]; RH 58% (sodium bromide), 8 hours, listed as AC β-Mal (Present invention)): 0.35 %, w/w
- Moisture content of samples ([3]; RH 58% (sodium bromide), 24 hours, listed as AC β-Mal (Present invention)): 0.35 %, w/w
- Moisture content of samples ([3]; RH 58% (sodium bromide), 96 hours, listed as AC β-Mal (Present invention)): 1.47 %, w/w
- Moisture content of samples ([3]; RH 58% (sodium bromide), 192 hours, listed as AC β-Mal (Present invention)): 4.16 %, w/w
- Moisture content of samples ([3]; RH 75% (sodium chloride), 0 hour (start, Karl Fischer), listed as AC β-Mal (Present invention)): 0.32 %, w/w
- Moisture content of samples ([3]; RH 75% (sodium chloride), 2 hours, listed as AC β-Mal (Present invention)): 0.66 %, w/w
- Moisture content of samples ([3]; RH 75% (sodium chloride), 4 hours, listed as AC β-Mal (Present invention)): 2.37 %, w/w
- Moisture content of samples ([3]; RH 75% (sodium chloride), 6 hours, listed as AC β-Mal (Present invention)): 3.93 %, w/w
- Moisture content of samples ([3]; RH 75% (sodium chloride), 8 hours, listed as AC β-Mal (Present invention)): 4.51 %, w/w
- Moisture content of samples ([3]; RH 75% (sodium chloride), 24 hours, listed as AC β-Mal (Present invention)): 4.54 %, w/w
- Moisture content of samples ([3]; RH 75% (sodium chloride), 96 hours, listed as AC β-Mal (Present invention)): 4.57 %, w/w
- Moisture content of samples ([3]; RH 75% (sodium chloride), 192 hours, listed as AC β-Mal (Present invention)): 5.19 %, w/w
- Moisture content of samples ([3]; RH 90% (barium chloride), 0 hour (start, Karl Fischer), listed as AC β-Mal (Present invention)): 0.32 %, w/w
- Moisture content of samples ([3]; RH 90% (barium chloride), 2 hours, listed as AC β-Mal (Present invention)): 1.72 %, w/w
- Moisture content of samples ([3]; RH 90% (barium chloride), 4 hours, listed as AC β-Mal (Present invention)): 4.53 %, w/w
- Moisture content of samples ([3]; RH 90% (barium chloride), 6 hours, listed as AC β-Mal (Present invention)): 4.79 %, w/w
- Moisture content of samples ([3]; RH 90% (barium chloride), 8 hours, listed as AC β-Mal (Present invention)): 4.58 %, w/w
- Moisture content of samples ([3]; RH 90% (barium chloride), 24 hours, listed as AC β-Mal (Present invention)): 4.66 %, w/w
- Moisture content of samples ([3]; RH 90% (barium chloride), 96 hours, listed as AC β-Mal (Present invention)): 4.82 %, w/w
- Moisture content of samples ([3]; RH 90% (barium chloride), 192 hours, listed as AC β-Mal (Present invention)): 5.38 %, w/w
- Form of the powder after admixing deionized water ([4]; 10 g crystal + 0.25 ml water (moisture content 2.4%, w/w)): Powder form
- Form of the powder after admixing deionized water ([4]; 10 g crystal + 0.50 ml water (moisture content 4.8%, w/w)): Powder form
- Form of the powder after admixing deionized water ([4]; 10 g crystal + 0.75 ml water (moisture content 7.0%, w/w)): Powder form
- Form of the powder after admixing deionized water ([4]; 10 g crystal + 1.00 ml water (moisture content 9.1%, w/w)): Powder form
- Form of the powder after admixing deionized water ([4]; 10 g crystal + 1.25 ml water (moisture content 11.1%, w/w)): Powder form
- Form of the powder after admixing deionized water ([4]; 10 g crystal + 1.50 ml water (moisture content 13.0%, w/w)): Lump form
- Form of the powder after admixing deionized water ([4]; 10 g crystal + 1.75 ml water (moisture content 14.9%, w/w)): Lump form
- Form of the powder after admixing deionized water ([4]; 10 g crystal + 2.00 ml water (moisture content 16.7%, w/w)): Lump form
